Read-outs that look alike come from different tables or passages of the source.
Columns and labels:
KDR = target: T1, KDR (Homo sapiens, UniProt P35968); experiment: (125I)-VEGF binding inhibition on NIH3T3 cells in which KDR was forced to be expressed; conditions: KDR-expressing NIH3T3 cells, (125I)-VEGF 25 pM, 90 minutes, read-out: IC50 (concentration of 50% binding inhibition)
T1 construct: expressed in transfected cells; host or cells: NIH3T3
Procedure: According to the method described in a document (Cell Growth & Differentiation, vol. 7, pp. 213-221, 1996), the following tests were carried out.
NIH3T3 cells in which Flt-1 was forced to be expressed were seeded on a 24-well collagen-coated plate (7×10^4/well), and were cultured in Dulbecco's modified Eagle's medium (DMEM) including 10% bovine serum and 200 μg/ml of Geneticin G418, for 24 hours at 37° C. under an atmosphere of 5% carbon dioxide gas. The cells were preincubated in Buffer A (including 10 mM HEPES (N-2-hydroxyethylpiperazine-N′-2-ethanesulfonic acid) and 0.1% BSA (bovine serum albumin) in DMEM), for 30 minutes at 4° C. Subsequently, the medium was replaced with Buffer B (including 10 mM HEPES and 0.5% BSA in DMEM). A test solution prepared by dissolving each of the test compounds shown in Table 19 in dimethylsulfoxide and subsequently diluting the solution into a prescribed concentration with Buffer B, and (^125I)-VEGF (the final concentration was set to 25 pM) were added thereto. Binding reaction was carried out for 90 minutes at […]. After completion of the reaction, the cells were washed three times with ice-cooled Buffer A. Subsequently, 0.5 ml of 0.5M NaOH were added to each well, and the cells were lysed in 30 minutes at room temperature. The radioactivity of the lysed cells in each well was measured by means of a gamma counter, and a total binding quantity of (^125I)-VEGF was calculated. Nonspecific binding quantity of (^125I)-VEGF was measured by competition assay in the presence of 10 nM non-labeled VEGF. The specific binding quantity of (^125I)-VEGF was calculated from the difference between the total binding quantity of (^125I)-VEGF and nonspecific binding quantity of (^125I)-VEGF.
The binding inhibition index of the test compounds was calculated by the following equation. [formula]
From this value, a concentration of 50% binding inhibition (IC50) of the test compound was calculated.
Test on each of the test compounds shown in Table 20 and Table 21 was carried out employing NIH3T3 cells in which KDR was forced to be expressed, in the same manner as described in Experimental Example 1 described above.

T1 sequence (P35968 20-1356): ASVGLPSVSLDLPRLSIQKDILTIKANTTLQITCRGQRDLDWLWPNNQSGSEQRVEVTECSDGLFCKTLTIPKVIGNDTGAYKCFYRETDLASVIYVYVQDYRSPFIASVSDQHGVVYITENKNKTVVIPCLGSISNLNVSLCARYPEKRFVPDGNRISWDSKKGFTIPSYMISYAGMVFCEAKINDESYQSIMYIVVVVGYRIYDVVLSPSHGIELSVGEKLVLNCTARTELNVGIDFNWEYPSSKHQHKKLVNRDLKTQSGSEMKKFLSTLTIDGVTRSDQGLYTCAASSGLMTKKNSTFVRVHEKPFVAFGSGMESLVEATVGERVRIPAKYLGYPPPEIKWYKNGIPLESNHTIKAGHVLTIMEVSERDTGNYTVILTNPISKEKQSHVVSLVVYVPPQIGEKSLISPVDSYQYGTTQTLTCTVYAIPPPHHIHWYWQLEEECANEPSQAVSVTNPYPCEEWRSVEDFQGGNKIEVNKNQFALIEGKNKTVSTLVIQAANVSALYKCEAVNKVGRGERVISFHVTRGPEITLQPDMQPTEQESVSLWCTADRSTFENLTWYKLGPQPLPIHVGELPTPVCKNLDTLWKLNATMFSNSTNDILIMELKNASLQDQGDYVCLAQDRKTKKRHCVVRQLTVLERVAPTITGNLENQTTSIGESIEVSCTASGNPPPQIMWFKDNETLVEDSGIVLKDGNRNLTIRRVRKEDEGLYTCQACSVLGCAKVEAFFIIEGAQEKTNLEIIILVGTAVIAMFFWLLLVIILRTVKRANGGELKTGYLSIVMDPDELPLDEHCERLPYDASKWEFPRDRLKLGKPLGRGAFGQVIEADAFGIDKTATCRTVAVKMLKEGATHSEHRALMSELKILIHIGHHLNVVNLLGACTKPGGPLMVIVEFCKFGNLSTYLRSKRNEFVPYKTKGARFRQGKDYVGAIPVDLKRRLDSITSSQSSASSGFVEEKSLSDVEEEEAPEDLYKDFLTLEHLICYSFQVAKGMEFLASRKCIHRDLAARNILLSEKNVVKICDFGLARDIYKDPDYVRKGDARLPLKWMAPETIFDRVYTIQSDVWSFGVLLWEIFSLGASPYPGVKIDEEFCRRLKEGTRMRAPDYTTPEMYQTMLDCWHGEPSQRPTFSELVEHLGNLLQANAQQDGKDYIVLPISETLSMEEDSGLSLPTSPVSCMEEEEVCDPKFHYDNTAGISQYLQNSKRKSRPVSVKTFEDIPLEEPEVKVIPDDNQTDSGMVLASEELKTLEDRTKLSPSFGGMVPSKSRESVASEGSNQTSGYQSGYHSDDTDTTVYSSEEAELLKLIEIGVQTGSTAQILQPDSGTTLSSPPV

CCCCCCCCCCCCCCCCCCOc1ccc(CCC(=O)N(C)c2ccc(Oc3ccc(C(=O)OC)cc3)c(C(=O)OC)c2)cc1 [Compound 22]
melting point: 60 to 62 °C

CCCCCCCCCCCCCCCCCCOc1ccc(CCC(=O)Nc2ccc(Oc3ccccc3C(=O)O)c(C(=O)O)c2)cc1 [Compound 29]
IC50 (KDR; Table 20): 1190 nM
melting point: 184 to 186 °C

CCCCCCCCCCCCCCCCCCOc1ccc(CCC(=O)Nc2ccc(Oc3ccc(CC(=O)O)cc3)c(C(=O)O)c2)cc1 [Compound 31]
IC50 (KDR; Table 20): 1230 nM
melting point: 170 to 173 °C

CCCCCCCCCCCCCCCCCCOc1ccc(CCC(=O)Nc2ccc(Oc3cccc(CC(=O)O)c3)c(C(=O)O)c2)cc1 [Compound 32]
IC50 (KDR; Table 20): 930 nM
melting point: 163 to 167 °C

CCCCCCCCCCCCCCCCCCOc1ccc(CCC(=O)Nc2ccc(Oc3ccc(CCC(=O)O)cc3)c(C(=O)O)c2)cc1 [Compound 33]
IC50 (KDR; Table 20): 260 nM
melting point: 156 to 160 °C

CCCCCCCCCCCCCCCCCCOc1ccc(CCC(=O)Nc2ccc(Oc3ccc(/C=C/C(=O)O)cc3)c(C(=O)O)c2)cc1 [Compound 34]
IC50 (KDR; Table 20): 340 nM
melting point: 200 to 208 °C

CCCCCCCCCCCCCCCCCCOc1ccc(CCC(=O)Nc2ccc(Oc3ccc4cc(C(=O)O)ccc4c3)c(C(=O)O)c2)cc1 [Compound 35]
IC50 (KDR; Table 20): 200 nM
melting point: 215 to 225 °C

CCCCCCCCCCCCCCCCCCOc1ccc(CCC(=O)Nc2cc(C(=O)O)ccc2Oc2cccc(C(=O)O)c2)cc1 [Compound 36]
IC50 (KDR; Table 20): 1270 nM
melting point: 212 to 216 °C

CCCCCCCCCCCCCCCCCCOc1ccc(CCC(=O)Nc2cc(C(=O)O)ccc2Oc2ccc3cc(C(=O)O)ccc3c2)cc1 [Compound 38]
IC50 (KDR; Table 20): 710 nM
melting point: 214 to 219 °C

CCCCCCCCCCCCCCCCCCOc1ccc(CCC(=O)Nc2ccc(Sc3ccc(C(=O)O)cc3)c(C(=O)O)c2)cc1 [Compound 41]
IC50 (KDR; Table 20): 370 nM
melting point: 198 to 203 °C

CCCCCCCCCCCCCCCCCCOc1ccc(CCC(=O)Nc2ccc(Sc3cccc(C(=O)O)c3)c(C(=O)O)c2)cc1 [Compound 42]
IC50 (KDR; Table 20): 450 nM
melting point: 194 to 198 °C

CCCCCCCCCCCCCCCCCCOc1ccc(CCC(=O)Nc2cc(C(=O)O)ccc2Sc2cccc(C(=O)O)c2)cc1 [Compound 43]
IC50 (KDR; Table 20): 660 nM
melting point: 246 to 248 °C

CCCCCCCCCCCCCCCCCCOc1ccc(CCC(=O)Nc2ccc(Sc3ccc(C(=O)O)cn3)c(C(=O)O)c2)cc1 [Compound 44]
IC50 (KDR; Table 20): 910 nM
melting point: 221 to 223 °C

CCCCCCCCCCCCCCCCCCOc1ccc(CCC(=O)Nc2ccc(Nc3ccc(C(=O)O)cc3)c(C(=O)O)c2)cc1 [Compound 45]
IC50 (KDR; Table 20): 760 nM
melting point: 230 to 235 °C

CCCCCCCCCCCCCCCCCCOc1ccc(CCC(=O)Nc2ccc(Nc3cccc(C(=O)O)c3)c(C(=O)O)c2)cc1 [Compound 46]
IC50 (KDR; Table 20): 400 nM
melting point: 235 to 240 °C

CCCCCCCCCCCCCCCCCCOc1ccc(CCC(=O)Nc2ccc(Nc3ccccc3C(=O)O)c(C(=O)O)c2)cc1 [Compound 47]
IC50 (KDR; Table 20): 940 nM
melting point: 247 to 252 °C

CCCCCCCCCCCCCCCCCCOc1ccc(CCC(=O)N(C)c2ccc(SC)c(C(=O)OC)c2)cc1 [Compound 90]
melting point: 65.5 to 66.5 °C

CCCCCCCCCCCCCCCCCCOc1ccc(CC(=O)N(C)c2ccc(SC)c(C(=O)OC)c2)cc1 [Compound 91]
melting point: 60 to 69 °C

CCCCCCCCCCCCCCCCCCOc1ccc(CCC(=O)N(CC(=O)O)c2ccc(SC)c(C(=O)OC)c2)cc1 [Compound 102]
melting point: 102 to 106 °C

CCCCCCCCCCNC(=O)[C@H](CC(=O)O)NC(=O)CCCOc1ccc(CCC(=O)Nc2ccc(SC)c(C(=O)OC)c2)cc1 [Compound 105]
melting point: 165 to 167 °C

CCCCCCCCCCCCCCCCCCOc1ccc(CCC(=O)Nc2ccc([S+](C)[O-])c(C(=O)OC)c2)cc1 (stereo not drawn) [Compound 106]
melting point: 65 to 67 °C

CCCCCCCCCCCCCCCCCCOc1ccc(CC(=O)N(C)c2ccc(SCCO)c(C(=O)OC)c2)cc1 [Compound 109]
melting point: 92.5 to 94 °C

CCCCCCCCCCCCCCCCCCOc1ccc(CCC(=O)Nc2ccc(SC)c(C(=O)O)c2)cc1 [Compound 115]
IC50 (KDR; Table 21): 150 nM
melting point: 185 to 194 °C

CCCCCCCCCCCCCCCCCCOc1ccc(CC(=O)Nc2ccc(SC)c(C(=O)O)c2)cc1 [Compound 116]
IC50 (KDR; Table 21): 160 nM
melting point: 200 to 204 °C

CCCCCCCCCCCCCCCCCCCCOc1ccc(CCC(=O)Nc2ccc(SC)c(C(=O)O)c2)cc1 [Compound 117]
IC50 (KDR; Table 21): 320 nM
melting point: 211 to 213 °C

CCCCCCCCCCCCCCCCCCCCCCOc1ccc(CCC(=O)Nc2ccc(SC)c(C(=O)O)c2)cc1 [Compound 118]
IC50 (KDR; Table 21): 1580 nM
melting point: 209 to 212 °C

CCCCCCCCCCCCCCCCCCOc1ccc(CCC(=O)Nc2ccc(SC)c(C(=O)O)c2)cc1OC [Compound 119]
IC50 (KDR; Table 21): 290 nM
melting point: 174 to 176 °C

CCCCCCCCCCCCCCCCCC(=O)Nc1ccc(CCC(=O)Nc2ccc(SC)c(C(=O)O)c2)cc1 [Compound 120]
IC50 (KDR; Table 21): 440 nM
melting point: 257 to 260 °C

CCCCCCCCCCCCCCCCOc1ccc(CC(=O)Nc2ccc(SC)c(C(=O)O)c2)cc1 [Compound 127]
IC50 (KDR; Table 21): 1160 nM
melting point: 200 to 205 °C

CCCCCCCCCCCCCCCCCC(=O)Nc1ccc(CC(=O)Nc2ccc(SC)c(C(=O)O)c2)cc1 [Compound 130]
IC50 (KDR; Table 21): 230 nM
melting point: 214 to 217 °C

CCCCCCCCCCCCCCCCCC(=O)Nc1cccc(CC(=O)Nc2ccc(SC)c(C(=O)O)c2)c1 [Compound 131]
IC50 (KDR; Table 21): 310 nM
melting point: 224 to 228 °C

CCCCCCCCCCCCCCCCCC(=O)Nc1ccccc1CC(=O)Nc1ccc(SC)c(C(=O)O)c1 [Compound 132]
IC50 (KDR; Table 21): 1660 nM
melting point: 247 to 250 °C

CCCCCCCCCCCCCCCCCCOc1ccc(OCC(=O)Nc2ccc(SC)c(C(=O)O)c2)cc1 [Compound 133]
IC50 (KDR; Table 21): 160 nM
melting point: 165 to 169 °C

CCCCCCCCCCCCCCCCOc1ccc(OCCCC(=O)Nc2ccc(SC)c(C(=O)O)c2)cc1 [Compound 134]
IC50 (KDR; Table 21): 120 nM
melting point: 197 to 202 °C

CCCCCCCCCCCCCCOc1ccc(OCCCCCC(=O)Nc2ccc(SC)c(C(=O)O)c2)cc1 [Compound 135]
IC50 (KDR; Table 21): 450 nM
melting point: 199 to 202 °C

CCCCCCCCCCCCOc1ccc(OCCCCCCCC(=O)Nc2ccc(SC)c(C(=O)O)c2)cc1 [Compound 136]
IC50 (KDR; Table 21): 400 nM
melting point: 193 to 196 °C

CCCCCCCCCCOc1ccc(OCCCCCCCCCC(=O)Nc2ccc(SC)c(C(=O)O)c2)cc1 [Compound 137]
IC50 (KDR; Table 21): 460 nM
melting point: 185 to 188 °C

CCCCCCCCOc1ccc(OCCCCCCCCCCCC(=O)Nc2ccc(SC)c(C(=O)O)c2)cc1 [Compound 138]
IC50 (KDR; Table 21): 430 nM
melting point: 180 to 185 °C

CCCCCCCCCCCCCCCCCCOc1ccc(CC(=O)Nc2ccc(SCC)c(C(=O)O)c2)cc1 [Compound 143]
IC50 (KDR; Table 21): 760 nM
melting point: 149 to 153 °C

CCCCCCCCCCCCCCCCCCOc1ccc(CCC(=O)Nc2cc(C(=O)O)ccc2SC)cc1 [Compound 145]
IC50 (KDR; Table 21): 1290 nM
melting point: 216 to 219 °C

CCCCCCCCCCCCCCCCCCOc1ccc(CCC(=O)Nc2cc(C(=O)O)ccc2SCC)cc1 [Compound 146]
IC50 (KDR; Table 21): 630 nM
melting point: 174 to 177 °C

CCCCCCCCCCCCCCCCCCOc1ccc(CCC(=O)Nc2cc(C(=O)O)ccc2SCCC)cc1 [Compound 147]
IC50 (KDR; Table 21): 570 nM
melting point: 150 to 152 °C

CCCCCCCCCCCCCCCCCCOc1ccc(CCC(=O)Nc2cc(C(=O)O)ccc2SCc2ccccc2)cc1 [Compound 148]
IC50 (KDR; Table 21): 930 nM
melting point: 178 to 181 °C

CCCCCCCCCCCCCCCCCCOc1ccc(CCC(=O)N(CC)c2ccc(SC)c(C(=O)O)c2)cc1 [Compound 149]
IC50 (KDR; Table 21): 140 nM
melting point: 108 to 110 °C

CCCCCCCCCCCCCCCCCCOc1ccc(CCC(=O)N(CC2CC2)c2ccc(SC)c(C(=O)O)c2)cc1 [Compound 150]
IC50 (KDR; Table 21): 590 nM
melting point: 126 to 128 °C

CCCCCCCCCCCCCCCCCCOc1ccc(CCC(=O)N(Cc2ccccc2)c2ccc(SC)c(C(=O)O)c2)cc1 [Compound 151]
IC50 (KDR; Table 21): 800 nM
melting point: 127 to 129 °C

CCCCCCCCCCCCCCCCCCOc1ccc(C=CC(=O)N(C)c2ccc(SC)c(C(=O)O)c2)cc1 [Compound 153]
IC50 (KDR; Table 21): 250 nM
melting point: 156 to 157 °C
